# Measurements taken from patent publication US9617311B2, “Use of PEDF-derived polypeptides for promoting stem cells proliferation and wound healing” (Mackay Memorial Hospital, priority 2011, dated 2017).
# System: Lgr6-positive HFSCs
# Experiment: Distribution of Lgr6-positive HFSCs at HE tissue at day 4 post skin wounding, immunohistochemistry
# Assay type: in vivo, C57L/B6 mice
# Settings: wounds treated for 4 days
# Description: FIGS. 10A and 10B illustrate histological analysis of the distribution of HFSCs at day 4 post-skin wounding. FIG. 10A provides photographs in which specimens were immunehistologically stained with Lgr6 to observe HFSC-derived cells at HE tissue and counterstained with hematoxylin to observe nuclei. Original magnification, ×400. FIG. 10B presents photographs in which sections of 20-mer ointment-treated wound were stained with BrdU- and Lgr6-specific antibodies. Lgr6 is expressed in the cell nucleus as confirmed by Hoechst 33258 counterstaining.
# To perform full-thickness skin excision, 8- to 10-week-old C57L/B6 mice were respectively anesthetized by an intraperitoneal injection of a mixture of zoletil (6 mg/kg) and xylazine (3 mg/kg). Two full-thickness skin excisional wounds, 4 mm in diameter were made on either side of the dorsal midline using Sklar Tru-Punch disposable biopsy punch (Sklar, West Chester, Pa., USA). In each treatment group (n=6), the skin wound was treated with 25 μl skin ointment (containing 50 μM synthetic peptide and 0.006 μl DMSO vehicle) once daily after the skin scraping. In the control group (n=6), skin wound was treated with 25 μl of skin ointment with equal concentration of DMSO. Each gram of the above skin ointment contains 5 mg neomycin sulfate and 12.5 mg Bacitracin Zinc. Wounds were left uncovered and harvested 4 and 7 days after injury. […]
sequence,measurement,value
"SLGAEQRTESIIHRALYYDL [20-mer, synthetic peptide identical to residues 11-30 of the 39-mer]",Lgr6-positive cells at HE tissue versus control wound,markedly increased
